# Laboratory results from patent US12221446B2 (Merck Patent GmbH, priority 2018, dated 2025).
# Like-named read-outs stand apart in the source and are kept apart here.
# Assays:
# [1] = Method: DVS measurements are typically performed with an SPS11-100n “Sorptions Prüfsystem” from ProUmid (formerly “Projekt Messtechnik”), August-Nagel-Str. 23, 89079 Ulm (Germany).
# DVS measurements were performed with an SPS11-100n “Sorptions Prüfsystem” from ProUmid (formerly “Projekt Messtechnik”), August-Nagel-Str. 23, 89079 Ulm (Germany).
# [2] = 25° C./60% rh; for Pyrazino-s-triazine derivative of 4α-hydroxy-5-methyl-THF (MeFox) (% w/w): major degradation product
# [3] = for Pyrazino-s-triazine derivative of 4α-hydroxy-5-methyl-THF (MeFox) (% abs.): 40° C./75% rh, major degradation product
# [4] = Water content / TG-FTIR analysis
smiles,measurement,setting,value
CN1c2c([nH]c(N)nc2=O)NC[C@@H]1CNc1ccc(C(=O)N[C@@H](CCC(=O)[O-])C(=O)[O-])cc1.[Ca+2],change of water content,[1]; relative humidity from 20 to 75% r.h.,more than 6%
same,change of water content (DVS),"[1]; within the tested range, 0 to 75% r.h.",more than 6%
same,Pyrazino-s-triazine derivative of 4α-hydroxy-5-methyl-THF (MeFox) (% w/w),[2]; 0 months,0.20 % w/w
same,Pyrazino-s-triazine derivative of 4α-hydroxy-5-methyl-THF (MeFox) (% w/w),[2]; 3 months,0.59 % w/w
same,Pyrazino-s-triazine derivative of 4α-hydroxy-5-methyl-THF (MeFox) (% w/w),[2]; 6 months,0.71 % w/w
same,Pyrazino-s-triazine derivative of 4α-hydroxy-5-methyl-THF (MeFox) (% w/w),[2]; 9 months,0.68 % w/w
same,content of MeFox,[2]; already before reaching 9 months,over 0.6%
same,Pyrazino-s-triazine derivative of 4α-hydroxy-5-methyl-THF (MeFox) (% abs.),[3]; 0 months,0.20 % abs.
same,Pyrazino-s-triazine derivative of 4α-hydroxy-5-methyl-THF (MeFox) (% abs.),[3]; 3 months,0.72 % abs.
same,Pyrazino-s-triazine derivative of 4α-hydroxy-5-methyl-THF (MeFox) (% abs.),[3]; 6 months,0.80 % abs.
same,Pyrazino-s-triazine derivative of 4α-hydroxy-5-methyl-THF (MeFox) (% abs.),[3]; 9 months,0.68 % abs.
same,content of MeFox,[3]; already before reaching 9 months (Table 7),over 0.6%
same,water content (generally),[4]; general statement,more than 10%
same,water content,[4]; measured on a sample,12.4%
